Laboratory results as given in ChEMBL document CHEMBL1132741, “Novel antifungals based on 4-substituted imidazole: a combinatorial chemistry approach to lead discovery and optimization” (Bioorg Med Chem Lett, 2000).
In brackets after ≈: the same amount, converted by molar mass.

Test system: Aspergillus fumigatus
Test: Minimum inhibitory concentration of compound for antifungal activity against Aspergillus fumigatus
Format: functional
Conditions: not given
In the case of `CCC(C)n1ncn(-c2ccc(N3CCN(c4ccc(OCC5COC(Cn6cncn6)(c6ccc(Cl)cc6Cl)O5)cc4)CC3)cc2)c1=O` (stereo not given) [ITRACONAZOLE], the MIC is reported as 1 µM (≈ 0.706 µg/mL). `CC(=O)N1CCN(c2ccc(OC[C@H]3CO[C@](Cn4ccnc4)(c4ccc(Cl)cc4Cl)O3)cc2)CC1` [KETOCONAZOLE] gave an MIC of 10 µM (≈ 5.31 µg/mL).

Test system: Nakaseomyces glabratus
Test: Minimum inhibitory concentration of compound for antifungal activity against Candida glabrata
Format: functional
Conditions: not given
Work on `CCC(C)n1ncn(-c2ccc(N3CCN(c4ccc(OCC5COC(Cn6cncn6)(c6ccc(Cl)cc6Cl)O5)cc4)CC3)cc2)c1=O` (stereo not given) [ITRACONAZOLE] yielded an MIC of 1 µM (≈ 0.706 µg/mL). `CC(=O)N1CCN(c2ccc(OC[C@H]3CO[C@](Cn4ccnc4)(c4ccc(Cl)cc4Cl)O3)cc2)CC1` [KETOCONAZOLE] gave an MIC of 10 µM (≈ 5.31 µg/mL).

Test system: Candida albicans
Test: Inhibition of ergosterol synthesis as measured in Candida albicans subcellular screen
Format: functional
Conditions: not given
`CC(C)C(C(C)C)N(Cc1c[nH]cn1)S(=O)(=O)c1cc(Cl)sc1Cl` gave an IC50 of 71 nM. For `CCCCCCN(Cc1c[nH]cn1)S(=O)(=O)c1ccc(OCCCC)cc1`, the IC50 was 76 nM. Work on `CCCCOc1ccc(S(=O)(=O)N(CCCCc2ccccc2)Cc2c[nH]cn2)cc1` yielded an IC50 of 27 nM. `Brc1ccc(CCN(Cc2ccc(-c3ccccc3)cc2)Cc2c[nH]cn2)cc1` showed an IC50 of 1240 nM.

Test system: Kluyveromyces marxianus
Test: Minimum inhibitory concentration of compound for antifungal activity against Candida kefyr
Format: functional
Conditions: not given
In the case of `CCC(C)n1ncn(-c2ccc(N3CCN(c4ccc(OCC5COC(Cn6cncn6)(c6ccc(Cl)cc6Cl)O5)cc4)CC3)cc2)c1=O` (stereo not given) [ITRACONAZOLE], the MIC is reported as < 0.1 µM. In the case of `CC(=O)N1CCN(c2ccc(OC[C@H]3CO[C@](Cn4ccnc4)(c4ccc(Cl)cc4Cl)O3)cc2)CC1` [KETOCONAZOLE], the MIC is reported as < 0.1 µM.

Test system: Candida albicans
Test: Minimum inhibitory concentration of compound for antifungal activity against Candida albicans 1
Format: functional
Conditions: not given
For `CCC(C)n1ncn(-c2ccc(N3CCN(c4ccc(OCC5COC(Cn6cncn6)(c6ccc(Cl)cc6Cl)O5)cc4)CC3)cc2)c1=O` (stereo not given) [ITRACONAZOLE], the MIC was > 10 µM. For `CC(=O)N1CCN(c2ccc(OC[C@H]3CO[C@](Cn4ccnc4)(c4ccc(Cl)cc4Cl)O3)cc2)CC1` [KETOCONAZOLE], the MIC was > 10 µM.

Test system: Candida albicans
Test: Minimum inhibitory concentration of compound for antifungal activity against Candida albicans 2
Format: functional
Conditions: not given
With `CCC(C)n1ncn(-c2ccc(N3CCN(c4ccc(OCC5COC(Cn6cncn6)(c6ccc(Cl)cc6Cl)O5)cc4)CC3)cc2)c1=O` (stereo not given) [ITRACONAZOLE] the MIC was < 0.1 µM. Work on `CC(=O)N1CCN(c2ccc(OC[C@H]3CO[C@](Cn4ccnc4)(c4ccc(Cl)cc4Cl)O3)cc2)CC1` [KETOCONAZOLE] yielded an MIC of 0.1 µM (≈ 0.0531 µg/mL).

Test system: Candida albicans
Test: Minimum inhibitory concentration of compound for antifungal activity against Candida albicans 4
Format: functional
Conditions: not given
In the case of `CCC(C)n1ncn(-c2ccc(N3CCN(c4ccc(OCC5COC(Cn6cncn6)(c6ccc(Cl)cc6Cl)O5)cc4)CC3)cc2)c1=O` (stereo not given) [ITRACONAZOLE], the MIC is reported as > 10 µM. For `CC(=O)N1CCN(c2ccc(OC[C@H]3CO[C@](Cn4ccnc4)(c4ccc(Cl)cc4Cl)O3)cc2)CC1` [KETOCONAZOLE], the MIC was 10 µM (≈ 5.31 µg/mL).

Test system: Candida parapsilosis
Test: Minimum inhibitory concentration of compound for antifungal activity against Candida parapsilosis
Format: functional
Conditions: Lodderomyces parapsilosis
For `CCC(C)n1ncn(-c2ccc(N3CCN(c4ccc(OCC5COC(Cn6cncn6)(c6ccc(Cl)cc6Cl)O5)cc4)CC3)cc2)c1=O` (stereo not given) [ITRACONAZOLE], the MIC was < 0.1 µM. `CC(=O)N1CCN(c2ccc(OC[C@H]3CO[C@](Cn4ccnc4)(c4ccc(Cl)cc4Cl)O3)cc2)CC1` [KETOCONAZOLE] showed an MIC of 0.1 µM (≈ 0.0531 µg/mL).

Test system: Candida tropicalis
Test: Minimum inhibitory concentration of compound for antifungal activity against Candida tropicalis
Format: functional
Conditions: not given
Compound `CCC(C)n1ncn(-c2ccc(N3CCN(c4ccc(OCC5COC(Cn6cncn6)(c6ccc(Cl)cc6Cl)O5)cc4)CC3)cc2)c1=O` (stereo not given) [ITRACONAZOLE] has an MIC of 0.1 µM (≈ 0.0706 µg/mL). `CC(=O)N1CCN(c2ccc(OC[C@H]3CO[C@](Cn4ccnc4)(c4ccc(Cl)cc4Cl)O3)cc2)CC1` [KETOCONAZOLE] gave an MIC of 10 µM (≈ 5.31 µg/mL).

Test system: Pichia kudriavzevii
Test: Minimum inhibitory concentration of compound for antifungal activity against Candida krusei
Format: functional
Conditions: not given
`CCC(C)n1ncn(-c2ccc(N3CCN(c4ccc(OCC5COC(Cn6cncn6)(c6ccc(Cl)cc6Cl)O5)cc4)CC3)cc2)c1=O` (stereo not given) [ITRACONAZOLE] showed an MIC of 1 µM (≈ 0.706 µg/mL). Work on `CC(=O)N1CCN(c2ccc(OC[C@H]3CO[C@](Cn4ccnc4)(c4ccc(Cl)cc4Cl)O3)cc2)CC1` [KETOCONAZOLE] yielded an MIC of 1 µM (≈ 0.531 µg/mL).

Test system: Cryptococcus neoformans
Test: Minimum inhibitory concentration of compound for antifungal activity against Cryptococcus neoformans
Format: functional
Conditions: not given
For `CCC(C)n1ncn(-c2ccc(N3CCN(c4ccc(OCC5COC(Cn6cncn6)(c6ccc(Cl)cc6Cl)O5)cc4)CC3)cc2)c1=O` (stereo not given) [ITRACONAZOLE], the MIC was < 0.1 µM. Work on `CC(=O)N1CCN(c2ccc(OC[C@H]3CO[C@](Cn4ccnc4)(c4ccc(Cl)cc4Cl)O3)cc2)CC1` [KETOCONAZOLE] yielded an MIC of 0.1 µM (≈ 0.0531 µg/mL).

Test system: not listed separately
Test: Antifungal activity against molds expressed as negative log (pLAD value).
Format: functional, mould
Conditions: not given
Compound `CC(C)C(C(C)C)N(Cc1c[nH]cn1)S(=O)(=O)c1cc(Cl)sc1Cl` has a pLADm of 4.5. With `CCCCCCN(Cc1c[nH]cn1)S(=O)(=O)c1ccc(OCCCC)cc1` the pLADm was 5.2. Compound `CCCCOc1ccc(S(=O)(=O)N(CCCCc2ccccc2)Cc2c[nH]cn2)cc1` has a pLADm of 5.2. For `Brc1ccc(CCN(Cc2ccc(-c3ccccc3)cc2)Cc2c[nH]cn2)cc1`, the pLADm was 5.8.

Test system: Microsporum canis
Test: Minimum inhibitory concentration of compound for antifungal activity against Mucosporam canis
Format: functional
Conditions: not given
For `CCC(C)n1ncn(-c2ccc(N3CCN(c4ccc(OCC5COC(Cn6cncn6)(c6ccc(Cl)cc6Cl)O5)cc4)CC3)cc2)c1=O` (stereo not given) [ITRACONAZOLE], the MIC was < 0.1 µM. Work on `CC(=O)N1CCN(c2ccc(OC[C@H]3CO[C@](Cn4ccnc4)(c4ccc(Cl)cc4Cl)O3)cc2)CC1` [KETOCONAZOLE] yielded an MIC of 1 µM (≈ 0.531 µg/mL).

Test system: Trichophyton benhamiae
Test: Minimum inhibitory concentration of compound for antifungal activity against Trichophyton mentagrophytes
Format: functional, Arthroderma benhamiae
Conditions: not given
With `CCC(C)n1ncn(-c2ccc(N3CCN(c4ccc(OCC5COC(Cn6cncn6)(c6ccc(Cl)cc6Cl)O5)cc4)CC3)cc2)c1=O` (stereo not given) [ITRACONAZOLE] the MIC was 0.1 µM (≈ 0.0706 µg/mL). For `CC(=O)N1CCN(c2ccc(OC[C@H]3CO[C@](Cn4ccnc4)(c4ccc(Cl)cc4Cl)O3)cc2)CC1` [KETOCONAZOLE], the MIC was 10 µM (≈ 5.31 µg/mL).

Test system: Trichophyton rubrum
Test: Minimum inhibitory concentration of compound for antifungal activity against Trichophyton rubrum
Format: functional
Conditions: not given
With `CCC(C)n1ncn(-c2ccc(N3CCN(c4ccc(OCC5COC(Cn6cncn6)(c6ccc(Cl)cc6Cl)O5)cc4)CC3)cc2)c1=O` (stereo not given) [ITRACONAZOLE] the MIC was < 0.1 µM. `CC(=O)N1CCN(c2ccc(OC[C@H]3CO[C@](Cn4ccnc4)(c4ccc(Cl)cc4Cl)O3)cc2)CC1` [KETOCONAZOLE] gave an MIC of 0.1 µM (≈ 0.0531 µg/mL).

Test system: Saccharomyces cerevisiae
Test: Antifungal activity against yeast expressed as negative log (pLAD value).
Format: functional
Conditions: not given
With `CC(C)C(C(C)C)N(Cc1c[nH]cn1)S(=O)(=O)c1cc(Cl)sc1Cl` the pLADy was 6.3. For `CCCCCCN(Cc1c[nH]cn1)S(=O)(=O)c1ccc(OCCCC)cc1`, the pLADy was 6.1. Compound `CCCCOc1ccc(S(=O)(=O)N(CCCCc2ccccc2)Cc2c[nH]cn2)cc1` has a pLADy of 5.4. `Brc1ccc(CCN(Cc2ccc(-c3ccccc3)cc2)Cc2c[nH]cn2)cc1` gave a pLADy of 4.9.

Test system: Sporothrix schenckii
Test: Minimum inhibitory concentration of compound for antifungal activity against Sporothrix schenck ii
Format: functional
Conditions: not given
In the case of `CCC(C)n1ncn(-c2ccc(N3CCN(c4ccc(OCC5COC(Cn6cncn6)(c6ccc(Cl)cc6Cl)O5)cc4)CC3)cc2)c1=O` (stereo not given) [ITRACONAZOLE], the MIC is reported as 10 µM (≈ 7.06 µg/mL). In the case of `CC(=O)N1CCN(c2ccc(OC[C@H]3CO[C@](Cn4ccnc4)(c4ccc(Cl)cc4Cl)O3)cc2)CC1` [KETOCONAZOLE], the MIC is reported as 10 µM (≈ 5.31 µg/mL).
